# Read-outs that look alike come from different tables or passages of the source. Bridge positions count the residues as written; N and C are the ends. Square brackets hold non-standard residues; d marks the D form. Peptide text beside a SMILES is read from it. d2Nal = N[C@H](Cc1ccc2ccccc2c1)C(=O)O; Nle = CCCC[C@H](N)C(=O)O
# Assays:
# lamprey MCa receptor = molecular target: T1, lamprey MCa receptor (Lampetra fluviatilis, UniProt A6XB56); test: Radioligand binding assay (saturation and competition, [125I] NDP-MSH), lamprey MCa; set-up: species or system river lamprey; details: for affinity for lamprey MCa compared to the human MC1 and MC3 receptors: p < 0.01 for α-MSH, γ-MSH, ACTH(1–39)
# T1 sequence (A6XB56 1-341): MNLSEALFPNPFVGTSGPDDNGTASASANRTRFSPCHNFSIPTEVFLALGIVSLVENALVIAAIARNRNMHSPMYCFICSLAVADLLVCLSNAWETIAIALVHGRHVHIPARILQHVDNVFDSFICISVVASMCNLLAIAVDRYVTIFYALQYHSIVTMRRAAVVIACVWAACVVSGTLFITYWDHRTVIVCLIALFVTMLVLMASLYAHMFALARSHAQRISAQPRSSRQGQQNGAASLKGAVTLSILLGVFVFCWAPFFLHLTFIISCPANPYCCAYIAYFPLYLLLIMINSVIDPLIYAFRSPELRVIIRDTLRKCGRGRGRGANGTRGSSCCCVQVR
# Description: HEK-293 (human embryonic kidney) cells with Epstein-Barr nuclear antigen (EBNA) grown to 50–70% confluence were transfected with 10 μg of the construct using FuGENE-6 Transfection Reagent (Roche, Sweden) according to the manufacturers' instruction. The cells were grown in Dulbeccos Modified Eagle Media and F-12 Nutrient Mixture (D-MEM/F-12) (1:1) with GlutaMAX I containing 10% foetal bovine serum, 100 u/ml penicillin, 100 μg/ml streptomycin, 2.5 ug/ml amphotericin B, and 250 μg/ml geneticin G-418 (Invitrogen); in humidified atmosphere of 95% air and 5% CO2 at 37°C. Semi-stable cell lines, expressing target receptor, were obtained by selecting for growth in the presence of 100 μg/ml hygromycin B (Invitrogen), first added 24 hours after transfection.
# HEK-293 EBNA cells expressing MC receptors were harvested from plate and resuspended in binding buffer composed of 25 mM HEPES, 2.5 mM CaCl2, 1 mM MgCl2 and 0.2% bacitracin, pH adjusted to 7.4. To obtain the membranes, cells were mechanically homogenized with Ultra Turrax. Cell suspensions were centrifuged for 3 min at 190 g and membranes were collected from the supernatant by centrifugation for 15 min at 20000 g. The pellet was resuspended in binding buffer. The binding was performed in a final volume of 100 μl for 2 h at room temperature. Saturation experiments were carried out with serial dilutions of [^125I] […] Competition experiments were performed with constant 0.6 nM concentration of [^125I] […] The membranes were collected by filtration on Glass Fibre filters, Filtermat A (Perkin Elmer, USA), using a TOMTEC Mach III cell harvester (Orange, CT, USA). The filters were washed with 5 ml per well of 50 mM Tris HCl (pH 7.4) and dried at 50°C. MeltiLex A scintillator sheets (Perkin Elmer, USA) were melted on dried filters and radioactivity was counted with an automatic Microbeta counter 1450 (Perkin Elmer). Binding assays were performed in duplicate with at least three independent experiments. […] The results were analysed with Prism 3.0 software package (GraphPad, USA). Binding affinities were compared with one-way ANOVA Tukey's post-hoc tests.
# human MC1 = details: mean ± SEM, cited from earlier work; for Ki: competition
# human MC3 = details: mean ± SEM, cited from earlier work; for Ki: competition
# human MC4 = details: mean ± SEM, cited from earlier work; for Ki: competition
# human MC5 = details: mean ± SEM, cited from earlier work; for Ki: competition
# [1] = tested on: Non-transfected cells (HEK-293 EBNA); test: Radioligand binding, non-transfected cells; set-up: species or system human; details: [125I] NDP-MSH
# Description: HEK-293 EBNA cells expressing MC receptors were harvested from plate and resuspended in binding buffer composed of 25 mM HEPES, 2.5 mM CaCl2, 1 mM MgCl2 and 0.2% bacitracin, pH adjusted to 7.4. To obtain the membranes, cells were mechanically homogenized with Ultra Turrax. Cell suspensions were centrifuged for 3 min at 190 g and membranes were collected from the supernatant by centrifugation for 15 min at 20000 g. The pellet was resuspended in binding buffer. The binding was performed in a final volume of 100 μl for 2 h at room temperature. Saturation experiments were carried out with serial dilutions of [^125I] NDP-MSH { [Nle^4, D-Phe^7]α-MSH}, labelled by the Chloramine-T method. Non-specific binding was determined in the presence of 1 μM unlabeled NDP-MSH. Competition experiments were performed with constant 0.6 nM concentration of [^125I] NDP-MSH and serial dilutions of competing unlabelled human ligands: NDP-MSH, α-MSH, β-MSH, γ1-MSH, ACTH (1–17) ACTH (1–24) ACTH (1–39), MTII, HS024) (Neosystem, France) and lamprey ligands: MSH-A, MSH-B, ACTH(1–31). […] MeltiLex A scintillator sheets (Perkin Elmer, USA) were melted on dried filters and radioactivity was counted with an automatic Microbeta counter 1450 (Perkin Elmer). […] The results were analysed with Prism 3.0 software package (GraphPad, USA). […]
# [2] = comparison with previously published human values
# [3] = saturation, [125I] NDP-MSH, ref [42]
compound,measurement,setting,value
CSCC[C@H](NC(=O)[C@H](CO)NC(=O)[C@H](Cc1ccc(O)cc1)NC(=O)[C@@H](N)CO)C(=O)N[C@@H](CCC(=O)O)C(=O)N[C@@H](Cc1c[nH]cn1)C(=O)N[C@@H](Cc1ccccc1)C(=O)N[C@@H](CCCNC(=N)N)C(=O)N[C@@H](Cc1c[nH]c2ccccc12)C(=O)NCC(=O)N[C@@H](CCCCN)C(=O)N1CCC[C@H]1C(=O)N[C@H](C(=O)NCC(=O)N[C@@H](CCCCN)C(=O)N[C@@H](CCCCN)C(=O)N[C@@H](CCCNC(=N)N)C(=O)O)C(C)C [ACTH (1–17)],Ki,lamprey MCa receptor,51.1 ± 3.2 nM
same,affinity for lamprey MCa compared to the human MC4 and MC5 receptors,lamprey MCa receptor; [2],clearly higher affinities
same,affinity for lamprey MCa compared to the human MC1 and MC3 receptors,lamprey MCa receptor; [2],clearly lower affinities
same,Ki,human MC1; ref [40],0.23 ± 0.061 nM
same,Ki,human MC3; ref [40],14 ± 4.5 nM
same,Ki,human MC4; ref [40],419 ± 62 nM
same,Ki,human MC5; ref [40],4240 ± 1200 nM
"CSCC[C@H](NC(=O)[C@H](CO)NC(=O)[C@H](Cc1ccc(O)cc1)NC(=O)[C@@H](N)CO)C(=O)N[C@@H](CCC(=O)O)C(=O)N[C@@H](Cc1cnc[nH]1)C(=O)N[C@@H](Cc1ccccc1)C(=O)N[C@@H](CCCNC(=N)N)C(=O)N[C@@H](Cc1c[nH]c2ccccc12)C(=O)NCC(=O)N[C@@H](CCCCN)C(=O)N1CCC[C@H]1C(=O)N[C@H](C(=O)NCC(=O)N[C@@H](CCCCN)C(=O)N[C@@H](CCCCN)C(=O)N[C@@H](CCCNC(=N)N)C(=O)N[C@@H](CCCNC(=N)N)C(=O)N1CCC[C@H]1C(=O)N[C@H](C(=O)N[C@@H](CCCCN)C(=O)N[C@H](C(=O)N[C@@H](Cc1ccc(O)cc1)C(=O)N1CCC[C@H]1C(=O)N[C@@H](CC(N)=O)C(=O)NCC(=O)N[C@@H](C)C(=O)N[C@@H](CCC(=O)O)C(=O)N[C@@H](CC(=O)O)C(=O)N[C@@H](CCC(=O)O)C(=O)N[C@@H](CO)C(=O)N[C@@H](C)C(=O)N[C@@H](CCC(=O)O)C(=O)N[C@@H](C)C(=O)N[C@@H](Cc1ccccc1)C(=O)N1CCC[C@H]1C(=O)N[C@@H](CC(C)C)C(=O)N[C@@H](CCC(=O)O)C(=O)N[C@@H](Cc1ccccc1)C(=O)O)C(C)C)C(C)C)C(C)C [ACTH (1–39), adrenocorticotropic hormone] (H-SYSMEHFRWGKPVGKKRRPVKVYPNGAEDESAEAFPLEF-OH)",Ki,lamprey MCa receptor,291 ± 20 nM
"CSCC[C@H](NC(=O)[C@H](CO)NC(=O)[C@H](Cc1ccc(O)cc1)NC(=O)[C@@H](N)CO)C(=O)N[C@@H](CCC(=O)O)C(=O)N[C@@H](Cc1c[nH]cn1)C(=O)N[C@@H](Cc1ccccc1)C(=O)N[C@@H](CCCNC(=N)N)C(=O)N[C@@H](Cc1c[nH]c2ccccc12)C(=O)NCC(=O)N[C@@H](CCCCN)C(=O)N1CCC[C@H]1C(=O)N[C@H](C(=O)NCC(=O)N[C@@H](CCCCN)C(=O)N[C@@H](CCCCN)C(=O)N[C@@H](CCCNC(=N)N)C(=O)N[C@@H](CCCNC(=N)N)C(=O)N1CCC[C@H]1C(=O)N[C@H](C(=O)N[C@@H](CCCCN)C(=O)N[C@H](C(=O)N[C@@H](Cc1ccc(O)cc1)C(=O)N1CCC[C@H]1C(=O)N[C@@H](CC(N)=O)C(=O)NCC(=O)N[C@@H](C)C(=O)N[C@@H](CCC(=O)O)C(=O)N[C@@H](CC(=O)O)C(=O)N[C@@H](CCC(=O)O)C(=O)N[C@@H](CO)C(=O)N[C@@H](C)C(=O)N[C@@H](CCC(=O)O)C(=O)N[C@@H](C)C(=O)N[C@@H](Cc1ccccc1)C(=O)N1CCC[C@H]1C(=O)N[C@@H](CC(C)C)C(=O)N[C@@H](CCC(=O)O)C(=O)N[C@@H](Cc1ccccc1)C(=O)O)C(C)C)C(C)C)C(C)C [ACTH (1–39), adrenocorticotropic hormone] (H-SYSMEHFRWGKPVGKKRRPVKVYPNGAEDESAEAFPLEF-OH; N-terminus and C-terminus assumed)",affinity for lamprey MCa compared to the human MC4 and MC5 receptors,lamprey MCa receptor; [2],clearly higher affinities
same,affinity for lamprey MCa compared to the human MC1 and MC3 receptors,lamprey MCa receptor; [2],clearly lower affinities
same,Ki,human MC1; ref [40],3.95 ± 0.67 nM
same,Ki,human MC3; ref [40],135 ± 22 nM
same,Ki,human MC4; ref [40],2170 ± 120 nM
same,Ki,human MC5; ref [40],4920 ± 610 nM
CCCC[C@@H]1NC(=O)[C@@H](NC(C)=O)CSSC[C@@H](C(N)=O)NC(=O)CNC(=O)[C@H](Cc2c[nH]c3ccccc23)NC(=O)[C@H](CCCNC(=N)N)NC(=O)[C@@H](Cc2ccc3ccccc3c2)NC(=O)[C@H](Cc2c[nH]cn2)NC(=O)[C@H](CCCNC(=N)N)NC1=O [HS024] (Ac-C[Nle]RH[d2Nal]RWGC-NH2; disulfide 1-9 (inferred); N-terminus and C-terminus assumed),Ki,lamprey MCa receptor,72.5 ± 1.4 nM
same,"affinity for lamprey MCa compared to the human MC1, MC3, MC4 and MC5 receptors",lamprey MCa receptor; [2],clearly lower affinities
same,Ki,human MC1; ref [41],18.6 ± 3.3 nM
same,Ki,human MC3; ref [42],15.1 ± 3 nM
same,Ki,human MC4; ref [42],0.341 ± 0.089 nM
same,Ki,human MC5; ref [41],3.29 ± 1.15 nM
"CCCC[C@H](NC(=O)[C@H](CO)NC(=O)[C@H](Cc1ccc(O)c(I)c1)NC(=O)[C@H](CO)NC(C)=O)C(=O)N[C@@H](CCC(=O)O)C(=O)N[C@@H](Cc1c[nH]cn1)C(=O)N[C@H](Cc1ccccc1)C(=O)N[C@@H](CCCNC(=N)N)C(=O)N[C@@H](Cc1c[nH]c2ccccc12)C(=O)NCC(=O)N[C@@H](CCCCN)C(=O)N1CCC[C@H]1C(=O)N[C@H](C(N)=O)C(C)C [[^125I] NDP-MSH, [Nle^4, D-Phe^7]α-MSH]",Kd,"lamprey MCa receptor; read-out: Kd (mean ± SEM) from saturation curves, lamprey MCa, HEK-293 EBNA membranes, pH 7.4, 2 h, room temperature, non-specific binding with unlabelled NDP-MSH, mean ± SEM, duplicate, at least three independent experiments",2.46 ± 0.68 nM
same,"specific binding, non-transfected cells",[1],did not show any specific binding
same,Kd,"human MC1; saturation, [125I] NDP-MSH, ref [38]",0.109 ± 0.062 nM
same,Kd,human MC3; [3],0.412 ± 0.121 nM
same,Kd,human MC4; [3],1.78 ± 0.36 nM
same,Kd,"human MC5; saturation, [125I] NDP-MSH, ref [39]",5.05 ± 1 nM
CSCC[C@H](NC(=O)[C@@H](NC(=O)[C@@H](N)Cc1ccc(O)cc1)C(C)C)C(=O)NCC(=O)N[C@@H](Cc1c[nH]cn1)C(=O)N[C@@H](Cc1ccccc1)C(=O)N[C@@H](CCCNC(=N)N)C(=O)N[C@@H](Cc1c[nH]c2ccccc12)C(=O)N[C@@H](CC(=O)O)C(=O)N[C@@H](CCCNC(=N)N)C(=O)N[C@@H](Cc1ccccc1)C(N)=O [γ1-MSH],Ki,lamprey MCa receptor,684 ± 7 nM
same,affinity for lamprey MCa compared to the human MC4 and MC5 receptors,lamprey MCa receptor; [2],clearly higher affinities
same,affinity for lamprey MCa compared to the human MC1 and MC3 receptors,lamprey MCa receptor; [2],clearly lower affinities
same,Ki,human MC1; ref [39],2.68 ± 0.35 nM
same,Ki,human MC3; ref [42],7.45 ± 2.55 nM
same,Ki,human MC4; ref [42],51800 ± 12000 nM
same,Ki,human MC5; ref [39],42600 ± 6600 nM
β-melanocyte stimulating hormone [β-MSH],affinity for lamprey MCa compared to the human MC4 and MC5 receptors,lamprey MCa receptor; [2],clearly higher affinities
same,affinity for lamprey MCa compared to the human MC1 and MC3 receptors,lamprey MCa receptor; [2],clearly lower affinities
same,Ki,human MC1; ref [38],2.53 ± 0.93 nM
same,Ki,human MC3; ref [42],15.1 ± 3.4 nM
same,Ki,human MC4; ref [42],387 ± 208 nM
same,Ki,human MC5; ref [39],14400 ± 1670 nM
